Results taken from PubChem BioAssay AID179 (DTP/NCI, 2004).
pEC50, pIC50: −log10 of the molar value. Activity calls are given as the source filed them.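 The calls were made as follows: active = compounds giving half or more protection of infected cells from virus-caused growth loss, again on retest; inactive = the rest.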

Tested on: CEM cells HIV-1 protection, formazan growth assay
Assay: NCI AIDS Antiviral Assay
Conditions: for pIC50: measured here: growth of uninfected CEM cells
In short: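 Human CEM cells, uninfected and HIV-1-infected, received five drug concentrations, and growth was read by soluble formazan assay. Compounds giving at least 50% protection were retested; reproducible 100% protection defined confirmed active.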

SMILES | pEC50 | pIC50 | outcome
COC(=O)/C(=C/c1ccc(OC)cc1)C(C(=O)O)=C1CCCCC1 | < 3.40 | 5.25 | –
O=C(O)c1ccc(-c2ccc(-c3cc(=S)sc(=O)[nH]3)cc2)cc1 | < 3.58 | 4.05 | –
CCN(CC)CCCC(C)Nc1cc(-c2ccccc2)nc2cc(OC)ccc12 (stereo not given) | < 3.44 | 6.13 | –
Cc1ccccc1NC(=O)C1C(=O)N(c2ccccc2C)C(=O)/C1=N\N (stereo not given) | – | – | inactive
CCOC(=O)/C=C(/OCC)[C@@H]1C(C(=O)c2ccc(Cl)cc2)[C@@H]1/C(=C\C(=O)OCC)OCC (stereo not given in full) | < 3.70 | 5.23 | –
COc1ccc(N=C2C(=Nc3ccc(OC)cc3)N(S(=O)(=O)c3ccccc3)C(=S)N2c2ccc(OC)cc2)cc1 | < 3.70 | < 3.70 | –
C=CC(c1ccccc1)[C@@]1(OC(C)=O)C(=O)C(=O)OC1C1COC(C)(C)O1 (stereo not given in full) | < 3.70 | 5.19 | –
CN(C)CCc1ccc(Cl)cc1Cl | < 3.01 | 3.39 | –
CCOC(=O)C1(C/C=C\CBr)CCCCCCCCCCC1=O (stereo not given) | < 3.70 | 6.03 | –
CCOC(=O)c1c(-c2ccc(OC)cc2)ccn1C | < 3.70 | 4.54 | –
C=CC[P@]1(=O)O[C@H](c2ccccc2)C(C)N1C(C)C (stereo not given in full) | – | – | inactive
CCOC(=O)/N=N/C(C)(C)OC(C)=O | < 3.70 | < 3.70 | –
COc1ccc(OC)c(/C=C2/C(=O)N=C(NC(C)=O)N2C)c1 | < 3.70 | < 3.70 | –
O=c1c(Cl)c(Cl)cnn1CCCl | < 2.96 | 5.89 | –
O=[N+]([O-])/C(Cl)=C(/C(Cl)=C(Cl)Cl)N1CCOCC1 | < 3.70 | 5.06 | –
CCC(C)C1(O)OC2CC3(C)OC(=CC3=O)/C(C)=C\C3OC(=O)C1(C)C32 (stereo not given) | < 3.86 | 5.12 | –
CCc1ccccc1NC(=O)CC1NC(=O)CS1 (stereo not given) | < 3.47 | 3.67 | –
COc1ccc(/C=C/C(=O)c2sc(NC(=S)NC(=O)c3ccc(Cl)cc3)nc2C)cc1OC | < 4.43 | < 4.43 | –
CCOC(=O)/C(C=Nc1c(C)n(C)n(-c2ccccc2)c1=O)=C(/O)c1ccccc1 | < 3.70 | < 3.70 | –
c1cc(-c2ncc(-c3ccc4c(c3)CCCO4)o2)ccn1 | < 3.70 | 4.95 | –
CC1(Br)C(=O)NC(=O)N(C2CC(N=[N+]=[N-])C(CO)O2)C1N=[N+]=[N-] (stereo not given) | – | 4.05 | active
CCOC(=O)c1cc2cc([N+](=O)[O-])ccc2oc1=O | < 3.98 | < 3.98 | –

SMILES | pEC50 | pIC50 | outcome
CCN(CC)CC(C(=O)Nc1c(C)cccc1C)/C(C)=N\NC(=S)NN (stereo not given) | < 4.45 | < 4.45 | –
NCC1OC(n2cnc3c(N)ncnc32)CC1O (stereo not given) | < 3.70 | < 3.70 | –
Cc1ccc(C[N+](C)(C)N)cc1C | < 3.70 | < 3.70 | –
COc1ccc2oc3c(C)cc4c(OC)nnc(OC)c4c3c2c1 | < 3.70 | 4.90 | –
COc1ccc(N2C(=O)C3CC4=CC(=O)C[C@H]4[C@H]32)cc1 (stereo not given in full) | < 3.70 | 3.82 | –
CCOC(=O)/C(C#N)=C/c1cc2c3c(c1)CCCN3CCC2 | < 4.00 | < 4.00 | –
COc1ccc(/C=C2/SC(=Nc3ccccc3)N(NC(=O)Cc3ccccc3)C2=O)cc1 | < 3.67 | 3.83 | –
N/C(=N\N=C\c1ccccn1)NO | < 3.70 | 4.48 | –
C=CCC(CC=O)(C(=O)OCC)C(=O)OCC | < 3.70 | 3.96 | –
COC1CC(OC2C(C)OC(OC3C(C)OC(OC4C(C)OC(O[C@H]5CC[C@@]6(C)C(=CC[C@]7(O)[C@@H]6C[C@@H](O)[C@@]6(C)[C@]7(O)CC[C@@]6(O)C(C)=O)C5)CC4OC)CC3OC)CC2OC)OC(C)C1O (stereo not given in full) | < 3.70 | < 3.70 | –
Cc1ccncc1.Cc1ccncc1.O=[N+]([O-])[O-].O=[N+]([O-])[O-].[Pt+2] | < 3.83 | 4.16 | –
O=C(O)/C(=C/C=C/c1ccccc1)c1csc(-c2nc(/C(=C\C=C\c3ccccc3)C(=O)O)cs2)n1 | < 3.74 | < 4.00 | –
c1ccc(-c2nnc(-c3ccccn3)c3c2C[C@@H]2C[C@@H]4Cc5c(-c6ccccn6)nnc(-c6ccccn6)c5[C@@H]4[C@H]32)nc1 | < 3.70 | < 3.70 | –
CCN(CC)CCCOP(=O)(OCCCN(CC)CC)OCCCN(CC)CC | 4.70 | < 3.70 | –
NC(=O)NCCCC(NC(=O)OCCCCCCn1ccc(=O)[nH]c1=O)C(=O)O (stereo not given) | < 3.70 | 4.49 | –
COc1ccc(N/C=C2\C(=O)CCc3c2oc2cc(Cl)c(O)c(Cl)c32)cc1 | < 3.70 | 4.54 | –
NC(=O)c1ccc(NC(=O)c2ccccc2SC(=O)CCCC[n+]2ccccc2)cc1 | 5.13 | 4.80 | –
Nc1[nH]c(=S)nc2nc3c(c(-c4ccccc4)c12)CCCC3 | < 4.30 | < 4.30 | –
CC1(C)N([O-])[N+](=O)C1(C)C | < 3.70 | < 3.70 | –
CCOC(=O)c1cnc2sc3ccc4ccccc4c3n2c1=O | < 4.56 | < 4.56 | –
CC1=C(C/C=C/c2ccccc2)C(=O)c2ccccc2C1=O | – | – | inactive
NS(=O)(=O)c1ccc(C(=O)O)cc1 | < 3.70 | < 3.70 | –

SMILES | pEC50 | pIC50 | outcome
COc1cccc(NC(=O)N/C(=C/c2ccc(N(CCC#N)CCC#N)cc2)NC(=O)c2cc([N+](=O)[O-])ccc2Cl)c1 | < 4.91 | 4.94 | –
CSc1n[n+]2c(s1)SCCC2 | < 3.12 | 4.23 | –
COC(=O)C(Cl)=C1CC1 | < 2.77 | 4.03 | –
COc1ccc(/C=C2/C(=O)N(C(=O)c3ccccc3O)N=C2C)cc1OC | < 4.15 | 6.84 | –
S=c1cc(S)sc2c1c(=S)sc1nc3ccccn3c(=S)c12 | < 5.02 | < 5.02 | –
COC1CCC(=O)N1CCn1c(SCc2ccccc2)nc2ccccc21 (stereo not given) | < 4.03 | < 4.03 | –
CCCCOC(=O)CCC(Nc1nc(Cl)nc(Cl)n1)C(=O)OCCCC (stereo not given) | < 3.70 | < 3.70 | –
COc1cc(N=Nc2cc(NC(C)=O)c(N=Nc3ccc(S(=O)(=O)O)cc3)cc2S(=O)(=O)O)c(C)cc1N=Nc1ccc(NC(=O)c2ccc(N)cc2)cc1C | 5.06 | 4.01 | –
CN1C2CCCC1CC(=O)NC2 (stereo not given) | < 2.83 | < 2.83 | –
Cc1ccc(-n2c3nc(=O)n(C)c(=O)c-3nc3ccccc32)cc1 | – | – | inactive
O=[N+]([O-])O | < 3.70 | < 3.70 | –
N#C/C(=C\c1cccc(OCc2ccccc2)c1)c1ccc([N+](=O)[O-])cc1 | < 3.70 | 3.82 | –
O=C1OC(Cc2ccccc2)(N2CCCC2=O)C1c1ccccc1 (stereo not given) | < 3.95 | < 3.95 | –
O=C1CC2(C[C@@H]3CCCCCCCCC[C@@H](C3)C2)N1 (stereo not given in full) | < 3.70 | 4.39 | –
CCOc1ccc(/C=C2/C(=O)N=C(NC(C)=O)N2C)cc1 | < 3.70 | < 3.70 | –
O=C1N2Cc3c4ccc5c3CN3C(=O)N6Cc7c(ccc(c7CN1C6(c1ccccc1)C23c1ccccc1)OCCOCCOc1cc(Br)c(Br)cc1OCCOCCO4)OCCOCCOc1cc(Br)c(Br)cc1OCCOCCO5 (stereo not given) | < 6.26 | < 6.26 | –
CC(NC(=O)OC(C)(C)C)C(=O)NC(Cc1ccccc1)C(=O)NCC(=O)ON=C1CCCC1 (stereo not given) | < 3.70 | 4.59 | –
O=C1C=C(Nc2ccc(Cl)cc2Cl)C(=O)C=C1Nc1ccc(Cl)cc1Cl | < 3.70 | < 3.70 | –
COCCOc1cc(C)cc(/C=C(C)/C=C/C2=C(C)CCCC2(C)C)n1 | – | – | inactive
CCCN(C)C(=O)N(CC)S(=O)(=O)c1ccc(Cl)cc1 | – | – | inactive
CC(=O)ON1C(c2ccc([N+](=O)[O-])cc2)OCC2OC(n3cc(C)c(=O)[nH]c3=O)C[C@H]21 (stereo not given in full) | < 3.70 | < 3.70 | –
N#CCc1nc(-c2cc3ccccc3oc2=O)cs1 | < 3.70 | 4.42 | –

SMILES | pEC50 | pIC50 | outcome
O=C1CN(c2cccc(C(F)(F)F)c2)C(=O)CN1CCN1CC(=O)N(c2cccc(C(F)(F)F)c2)CC1=O | < 3.70 | < 3.70 | –
O=C(NC1CC(NC(=O)OCc2ccccc2)C2c3ccccc3C12)OCc1ccccc1 (stereo not given) | – | – | inactive
CCOC(=O)CNc1c(OCc2ccccc2)c(=O)c1=O | < 3.70 | < 3.70 | –
O=P1(c2ccccc2)CCCCC1 | 7.20 | < 3.70 | –
Cn1nc2ccc([N+](=O)[O-])cc2[n+]1[O-] | < 3.70 | 3.81 | –
CCOC(=O)c1ccc(CS(=O)(=O)c2ccc(Cl)cc2)c([N+](=O)[O-])c1 | < 4.31 | < 4.31 | –
COc1cc(N(C)C)c(OC)cc1/C=C1\Cc2ccccc2C1=O | < 4.24 | 4.33 | –
COc1cc2c(cc1O)C1(C(=O)c3ccc4c(c3[C@H]1O)OCO4)N(C)CC2 (stereo not given in full) | – | – | inactive
CCOC(=O)NNC(=O)NCCCCNC(=O)NNC(=O)OCC | < 3.70 | < 3.70 | –
CCOc1ccc(N2C(=O)C3c4[nH]c5ccccc5c4C4CCC(C(C)(C)C)CC4C3C2=O)cc1 (stereo not given) | < 5.66 | < 5.66 | –
N#CC(/C=C/c1ccccc1)Nc1ccccc1N (stereo not given) | < 4.54 | < 4.54 | –
COc1ccc(OC)c2c(Nc3ccc(S(=O)(=O)O)c4cc(S(=O)(=O)O)cc(S(=O)(=O)O)c34)cc(C)nc12 | < 3.70 | < 3.70 | –
CCOC(=O)Cc1nn2c(=O)cc(C)nc2s1 | < 3.70 | < 3.70 | –
COc1cc(Br)c(-c2coc3c(OC)c(OC)ccc3c2=O)cc1OC | < 4.30 | < 4.30 | –
O=C1C=C(Nc2ccc([N+](=O)[O-])cc2)c2ccccc2C1=O | < 5.17 | < 5.17 | –
CC(=O)Nc1c(C#N)c2n(c1C(=O)O)CCC2 | < 3.70 | < 3.70 | –
Cn1c(-c2ccc(-c3cc(-c4cccs4)c(-c4cccs4)n3C)cc2)cc(-c2cccs2)c1-c1cccs1 | < 3.70 | < 3.70 | –
O=C1c2ccccc2C(=O)c2c(O)c(NCCNCCO)cc(O)c21 | – | – | inactive
CCCCCCCCCCCCOP(=O)(O)OCC(N)C(=O)O (stereo not given) | < 3.70 | 4.99 | –
N#Cc1c(-c2ccc(Cl)c(Cl)c2)c(-c2ccc(Cl)c(Cl)c2)nn(CCO)c1=O | < 4.38 | 6.12 | –
CN(C)CCOC1(CC2CCCCC2)CCC(C(C)(C)C)CC1 (stereo not given) | < 3.70 | 5.09 | –
